Results: ChEMBL document CHEMBL1250451, “Mechanistic insights into a Ca2+-dependent family of alpha-mannosidases in a human gut symbiont” (Nat Chem Biol, 2010)
The source made the active and inactive calls. The rule behind the calls is not given here.

Assays:
Format in all cases: protein assay
[1] = molecular target: T1, Alpha-1,2-mannosidase (BT_2629) (Bacteroides thetaiotaomicron) (UniProt Q8A4H0); assay: Activity of Bacteroides thetaiotaomicron GH92 alpha-mannosidase GH92 alpha-mannosidase 2629 assessed as mannose release at 1 mM after 16 hrs by HPLC relative to untreated control after 16 hrs by HPLC
T1 sequence (whole entry): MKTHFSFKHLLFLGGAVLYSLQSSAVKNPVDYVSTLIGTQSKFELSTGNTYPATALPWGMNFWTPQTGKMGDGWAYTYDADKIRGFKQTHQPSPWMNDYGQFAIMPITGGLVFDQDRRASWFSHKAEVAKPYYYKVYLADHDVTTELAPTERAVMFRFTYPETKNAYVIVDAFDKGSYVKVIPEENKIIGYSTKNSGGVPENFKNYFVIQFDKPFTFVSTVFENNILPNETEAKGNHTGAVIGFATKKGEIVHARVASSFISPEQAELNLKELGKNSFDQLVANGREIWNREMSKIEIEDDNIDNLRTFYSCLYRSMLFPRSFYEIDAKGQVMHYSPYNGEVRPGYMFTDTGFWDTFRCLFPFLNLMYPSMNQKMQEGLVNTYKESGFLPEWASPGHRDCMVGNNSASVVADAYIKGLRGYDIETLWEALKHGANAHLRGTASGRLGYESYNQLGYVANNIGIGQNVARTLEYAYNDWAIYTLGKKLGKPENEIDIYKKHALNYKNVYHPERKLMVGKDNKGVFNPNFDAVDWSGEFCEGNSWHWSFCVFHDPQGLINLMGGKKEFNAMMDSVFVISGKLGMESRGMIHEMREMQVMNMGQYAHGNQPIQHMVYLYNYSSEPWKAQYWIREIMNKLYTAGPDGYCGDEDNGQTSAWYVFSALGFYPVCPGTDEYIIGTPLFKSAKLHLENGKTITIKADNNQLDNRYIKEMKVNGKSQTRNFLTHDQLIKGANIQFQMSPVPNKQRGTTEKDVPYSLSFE

[2] = molecular target: T2, Alpha-1,2-mannosidase (BT_3784) (Bacteroides thetaiotaomicron) (UniProt Q8A182); assay: Activity of Bacteroides thetaiotaomicron GH92 alpha-mannosidase GH92 alpha-mannosidase 3784 assessed as mannose release at 1 mM after 16 hrs by HPLC relative to untreated control after 16 hrs by HPLC
T2 sequence (whole entry): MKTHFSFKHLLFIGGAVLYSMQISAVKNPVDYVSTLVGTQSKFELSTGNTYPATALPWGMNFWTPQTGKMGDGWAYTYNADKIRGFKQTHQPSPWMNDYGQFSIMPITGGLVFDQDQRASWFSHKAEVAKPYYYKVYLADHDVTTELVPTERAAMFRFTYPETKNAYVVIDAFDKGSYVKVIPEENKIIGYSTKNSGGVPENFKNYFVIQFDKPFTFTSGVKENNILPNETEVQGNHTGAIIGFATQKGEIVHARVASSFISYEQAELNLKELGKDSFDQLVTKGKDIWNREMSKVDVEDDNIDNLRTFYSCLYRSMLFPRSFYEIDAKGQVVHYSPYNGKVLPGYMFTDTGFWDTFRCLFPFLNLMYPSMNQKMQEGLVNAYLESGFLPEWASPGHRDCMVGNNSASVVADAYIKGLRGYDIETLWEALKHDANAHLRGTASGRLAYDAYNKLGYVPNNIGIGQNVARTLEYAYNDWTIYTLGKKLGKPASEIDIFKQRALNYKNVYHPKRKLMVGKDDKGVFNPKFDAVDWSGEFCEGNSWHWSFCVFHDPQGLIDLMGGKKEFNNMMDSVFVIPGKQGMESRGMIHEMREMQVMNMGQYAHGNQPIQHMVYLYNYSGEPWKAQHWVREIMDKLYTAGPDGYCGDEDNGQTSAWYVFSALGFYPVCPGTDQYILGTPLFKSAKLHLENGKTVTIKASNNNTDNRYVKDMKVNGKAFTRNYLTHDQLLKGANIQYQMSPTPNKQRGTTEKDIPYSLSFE

[3] = molecular target: T3, Alpha-1,2-mannosidase (BT_2111) (Bacteroides thetaiotaomicron) (UniProt Q8A5X5); assay: Activity of Bacteroides thetaiotaomicron GH92 alpha-mannosidase GH92 alpha-mannosidase 2111 assessed as mannose release at 1 mM after 16 hrs by HPLC relative to untreated control after 16 hrs by HPLC
T3 sequence (whole entry): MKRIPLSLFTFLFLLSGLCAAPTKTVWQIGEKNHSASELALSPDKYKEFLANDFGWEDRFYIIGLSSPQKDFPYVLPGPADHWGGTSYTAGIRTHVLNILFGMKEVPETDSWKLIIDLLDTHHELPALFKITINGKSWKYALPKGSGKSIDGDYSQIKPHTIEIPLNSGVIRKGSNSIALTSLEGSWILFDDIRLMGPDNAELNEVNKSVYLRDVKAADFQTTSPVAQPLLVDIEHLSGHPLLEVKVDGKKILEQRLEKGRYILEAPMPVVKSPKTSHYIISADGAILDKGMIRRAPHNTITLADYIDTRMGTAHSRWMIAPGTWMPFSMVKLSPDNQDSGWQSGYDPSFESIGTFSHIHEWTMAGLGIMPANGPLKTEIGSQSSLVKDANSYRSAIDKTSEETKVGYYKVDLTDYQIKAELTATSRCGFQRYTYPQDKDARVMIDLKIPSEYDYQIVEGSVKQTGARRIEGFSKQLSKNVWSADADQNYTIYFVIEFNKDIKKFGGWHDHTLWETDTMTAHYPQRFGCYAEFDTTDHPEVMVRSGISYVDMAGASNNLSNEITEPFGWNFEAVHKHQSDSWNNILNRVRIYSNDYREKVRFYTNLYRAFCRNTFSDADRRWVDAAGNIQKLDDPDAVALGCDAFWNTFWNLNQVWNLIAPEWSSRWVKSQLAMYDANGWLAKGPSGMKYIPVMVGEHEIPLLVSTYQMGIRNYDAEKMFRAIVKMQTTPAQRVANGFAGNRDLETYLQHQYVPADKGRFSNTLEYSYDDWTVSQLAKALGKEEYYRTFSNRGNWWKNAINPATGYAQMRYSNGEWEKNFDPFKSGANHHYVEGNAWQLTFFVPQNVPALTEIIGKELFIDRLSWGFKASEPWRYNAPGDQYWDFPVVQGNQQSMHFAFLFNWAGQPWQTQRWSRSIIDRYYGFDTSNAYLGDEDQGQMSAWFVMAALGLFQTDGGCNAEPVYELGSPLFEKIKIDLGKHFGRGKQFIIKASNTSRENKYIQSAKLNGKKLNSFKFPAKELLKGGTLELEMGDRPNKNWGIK

Activity [1] | Activity [2] | Activity [3] | Structure (SMILES)
inactive | 7.8% | inactive | OC[C@H]1O[C@H](O[C@H]2[C@H](O)[C@H](O)[C@@H](O)O[C@@H]2CO)[C@@H](O)[C@@H](O)[C@@H]1O
inactive | inactive | inactive | OC[C@H]1O[C@H](OC[C@H]2O[C@H](O)[C@@H](O)[C@@H](O)[C@@H]2O)[C@@H](O)[C@@H](O)[C@@H]1O
inactive | 100% | inactive | OC[C@H]1O[C@H](O[C@H]2[C@@H](O)[C@H](O)[C@@H](CO)O[C@@H]2O)[C@@H](O)[C@@H](O)[C@@H]1O
inactive | 5.6% | inactive | OC[C@H]1O[C@H](O[C@@H]2[C@H](O)[C@@H](O)O[C@H](CO)[C@H]2O)[C@@H](O)[C@@H](O)[C@@H]1O
